Like-named read-outs stand apart in the source and are kept apart here. Numbered stars: 1 amine (or outer) side, 2 acyl side, 3 side chain; on linkers, the order of the positions; unused ones are H or OH. Square brackets hold non-standard residues; d marks the D form. Side chains are listed from the residue outwards. Peptide text beside a SMILES is read from it. * marks the point of attachment. γGlu = O=C(O)[C@H](CCC(=O)[*:2])N[*:1]; αMeF = C[C@](N)(Cc1ccccc1)C(=O)O; αMeK = C[C@](N)(CCCCN)C(=O)O; Lauroyl = CCCCCCCCCCCC(=O)*; αMeS = C[C@](N)(CO)C(=O)O; Nle = CCCC[C@H](N)C(=O)O; AEEA = NCCOCCOCC(=O)O; Aib = CC(C)(N)C(=O)O
Legend:
Type in all cases: cell-based
[1] = molecular target: T1, human GLP-1 receptor (GLP-1R) (Homo sapiens, UniProt P43220); experiment: cAMP assay, human GLP-1R cells
T1 construct: expressed in transfected cells
T1 sequence (P43220 24-463): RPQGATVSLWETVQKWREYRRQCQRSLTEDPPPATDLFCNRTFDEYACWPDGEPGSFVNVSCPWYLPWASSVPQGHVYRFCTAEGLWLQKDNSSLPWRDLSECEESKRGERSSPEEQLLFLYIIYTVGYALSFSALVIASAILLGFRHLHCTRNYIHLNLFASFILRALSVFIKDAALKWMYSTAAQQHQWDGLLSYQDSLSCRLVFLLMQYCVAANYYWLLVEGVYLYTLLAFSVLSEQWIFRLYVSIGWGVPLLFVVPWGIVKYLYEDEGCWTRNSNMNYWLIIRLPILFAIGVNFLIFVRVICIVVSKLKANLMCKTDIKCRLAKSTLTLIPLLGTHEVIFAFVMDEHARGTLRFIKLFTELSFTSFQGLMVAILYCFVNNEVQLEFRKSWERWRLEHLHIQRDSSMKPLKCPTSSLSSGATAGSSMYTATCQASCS
Outline: (§1)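 Peptide-stimulated cAMP measured by two-step HTRF after a 30 min room-temperature incubation with receptor-expressing cells (hGLP-1R, hGIPR at 1×10^5 cells/ml; hGCGR at 2×10^5 cells/ml). Duplicate dilutions; EC50 from 4-parameter logistic fit of % Delta F.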

[2] = molecular target: T2, GLP-1R (INS1e assay) (Rattus norvegicus, UniProt P32301); experiment: INS1e assay, cAMP activity at GLP-1R; settings: bis-lipidated peptides
T2 construct: endogenous in cells; host or cells: INS-1E cells
T2 sequence (P32301 22-463): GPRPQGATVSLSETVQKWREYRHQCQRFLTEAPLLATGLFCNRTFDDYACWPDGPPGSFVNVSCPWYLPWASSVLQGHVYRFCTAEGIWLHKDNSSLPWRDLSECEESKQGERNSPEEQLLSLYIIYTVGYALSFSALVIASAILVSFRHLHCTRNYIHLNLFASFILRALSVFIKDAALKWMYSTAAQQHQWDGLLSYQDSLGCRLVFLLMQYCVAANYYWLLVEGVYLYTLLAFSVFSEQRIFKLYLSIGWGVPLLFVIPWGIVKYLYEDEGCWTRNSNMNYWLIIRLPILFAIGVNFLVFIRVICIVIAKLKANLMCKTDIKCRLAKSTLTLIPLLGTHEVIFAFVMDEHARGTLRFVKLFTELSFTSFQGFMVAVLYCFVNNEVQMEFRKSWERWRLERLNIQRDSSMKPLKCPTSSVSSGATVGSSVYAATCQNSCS
Experimental: cAMP levels are measured using a commercially available cAMP dynamic 2 HTRF kit (Cisbio, Cat #62AM4PEJ), following the two step protocol as per manufacturer's recommendations. In brief; anti-cAMP cryptate (donor fluorophore) and cAMP-d2 (acceptor fluorophore) are made up separately by diluting each 1/20 in conjugate & lysis buffer provided in the kit. 5 μL anti-cAMP cryptate is added to wells of the assay plate, and 5 μL cAMP-d2 is added to wells except non-specific binding (NSB) wells, to which conjugate and lysis buffer are added. […] EC50 values of the synthetic peptides determined in cAMP assays are then determined.

[3] = molecular target: T3, human glucagon receptor (GCGR) (Homo sapiens, UniProt P47871); experiment: cAMP assay, human GCGR cells
T3 construct: expressed in transfected cells
T3 sequence (P47871 26-477): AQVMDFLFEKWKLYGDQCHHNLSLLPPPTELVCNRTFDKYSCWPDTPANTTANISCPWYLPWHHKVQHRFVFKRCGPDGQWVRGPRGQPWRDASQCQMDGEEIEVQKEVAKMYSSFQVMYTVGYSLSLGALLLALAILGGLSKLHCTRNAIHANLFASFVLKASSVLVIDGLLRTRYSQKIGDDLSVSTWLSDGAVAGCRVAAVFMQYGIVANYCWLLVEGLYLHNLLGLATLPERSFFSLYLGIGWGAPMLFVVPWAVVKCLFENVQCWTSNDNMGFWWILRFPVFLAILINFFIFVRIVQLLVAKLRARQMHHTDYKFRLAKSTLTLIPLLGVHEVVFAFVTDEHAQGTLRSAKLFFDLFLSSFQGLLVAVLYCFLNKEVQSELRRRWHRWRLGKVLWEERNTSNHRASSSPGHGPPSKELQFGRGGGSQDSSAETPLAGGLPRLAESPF
Outline: as §1

[4] = molecular target: T4, human glucose-dependent insulinotropic peptide receptor (GIPR) (Homo sapiens, UniProt P48546); experiment: cAMP assay, human GIPR cells
T4 construct: expressed in transfected cells
T4 sequence (P48546 22-466): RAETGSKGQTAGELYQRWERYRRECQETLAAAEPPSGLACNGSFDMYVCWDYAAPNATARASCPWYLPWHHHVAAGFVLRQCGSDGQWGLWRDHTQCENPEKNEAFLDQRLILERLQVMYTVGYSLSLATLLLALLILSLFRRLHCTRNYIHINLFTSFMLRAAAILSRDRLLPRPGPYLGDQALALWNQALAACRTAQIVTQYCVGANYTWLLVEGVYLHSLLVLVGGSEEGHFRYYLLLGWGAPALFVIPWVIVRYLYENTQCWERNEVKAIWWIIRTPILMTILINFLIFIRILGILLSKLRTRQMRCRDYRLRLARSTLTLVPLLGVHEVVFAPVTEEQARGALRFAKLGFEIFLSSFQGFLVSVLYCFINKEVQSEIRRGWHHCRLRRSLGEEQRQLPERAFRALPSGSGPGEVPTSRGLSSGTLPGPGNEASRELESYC
Outline: as §1

[5] = mean of n1 and n2, read-out: INS1e assay EC50 Mean pM GLP-1R
[6] = replicate n1, read-out: INS1e assay EC50 GLP-1R n1
[7] = replicate n2, read-out: INS1e assay EC50 GLP-1R n2
[8] = first run (n1), cAMP activity, read-out: Primary assay EC50 GLP-1R n1
[9] = mean of n1 and n2, read-out: Mean pM GLP-1R
[10] = second run (n2), cAMP activity, read-out: Primary assay EC50 GLP-1R n2
[11] = first run (n1), cAMP activity of substituted and mono-lipidated peptides, read-out: Primary assay EC50 Gluc-R
[12] = second run (n2), cAMP activity, read-out: Primary assay EC50 Gluc-R
[13] = first run (n1), cAMP activity, read-out: Primary assay EC50 GIP-R
[14] = second run (n2), cAMP activity, read-out: Primary assay EC50 GIP-R

Row | SMILES | EC50 [2, 5] [pM] | EC50 [2, 6] [pM] | EC50 [2, 7] [pM] | EC50 [1, 8] [pM] | EC50 [1, 9] [pM] | EC50 [1, 10] [pM] | EC50 [3, 11] [nM] | EC50 [3, 12] [nM] | EC50 [4, 13] [nM] | EC50 [4, 14] [nM] | also measured
1 | CC[C@H](C)[C@H](NC(=O)[C@](C)(Cc1ccccc1)NC(=O)[C@H](CCC(=O)O)NC(=O)[C@](C)(CCCCN)NC(=O)[C@H](C)NC(=O)[C@H](C)NC(=O)[C@H](CCC(=O)O)NC(=O)CNC(=O)[C@H](CCC(=O)O)NC(=O)[C@H](CC(C)C)NC(=O)[C@](C)(Cc1ccccc1)NC(=O)[C@H](CO)NC(=O)[C@](C)(CO)NC(=O)[C@@H](NC(=O)[C@H](CC(=O)O)NC(=O)[C@H](CO)NC(=O)[C@@H](NC(=O)[C@](C)(Cc1ccccc1)NC(=O)[C@H](CO)NC(=O)CNC(=O)[C@H](CCC(=O)O)NC(=O)C(C)(C)NC(=O)[C@@H](N)Cc1c[nH]cn1)[C@@H](C)O)C(C)C)C(=O)N[C@@H](C)C(=O)N[C@@](C)(Cc1ccccc1)C(=O)N[C@H](C(=O)N[C@H](C(=O)N[C@@H](CCCCNC(=O)CC[C@H](NC(=O)CCCCCCCCCCCCCCCCC(=O)O)C(=O)O)C(=O)NCC(=O)NCC(N)=O)C(C)C)C(C)C [compound 191] |  |  |  | 250 | 182 | 110 | ≥ 28 | ≥ 28 | ≥ 28 | ≥ 28 | 
2 | CCCCCCCCCCCCCCCC(=O)N[C@@H](CCC(=O)NCCCC[C@H](NC(=O)[C@H](C)NC(=O)[C@H](C)NC(=O)[C@H](CCC(=O)O)NC(=O)CNC(=O)[C@H](CCC(=O)O)NC(=O)[C@H](CC(C)C)NC(=O)[C@](C)(Cc1ccccc1)NC(=O)[C@H](CO)NC(=O)[C@](C)(CO)NC(=O)[C@@H](NC(=O)[C@H](CC(=O)O)NC(=O)[C@H](CO)NC(=O)[C@@H](NC(=O)[C@](C)(Cc1ccccc1)NC(=O)[C@H](CO)NC(=O)CNC(=O)[C@H](CCC(=O)O)NC(=O)C(C)(C)NC(=O)[C@@H](N)Cc1c[nH]cn1)[C@@H](C)O)C(C)C)C(=O)N[C@@H](CCC(=O)O)C(=O)N[C@@](C)(Cc1ccccc1)C(=O)N[C@H](C(=O)N[C@@H](C)C(=O)N[C@@](C)(Cc1ccccc1)C(=O)N[C@H](C(=O)N[C@H](C(=O)N[C@@](C)(CCCCN)C(=O)NCC(=O)NCC(N)=O)C(C)C)C(C)C)[C@@H](C)CC)C(=O)O [compound 34] |  |  |  |  | 43 |  |  |  |  |  | EC50 ([1]; cAMP assay, first determination (n1), read-out: Primary assay EC50 GLP-1R n1): 39 pM; EC50 ([1]; cAMP assay, second determination (n2), read-out: Primary assay EC50 GLP-1R n2): 48 pM; EC50 ([3]; cAMP assay, first determination (n1), read-out: Primary assay EC50 Gluc-R (n1)): ≥ 93 nM; EC50 ([3]; cAMP assay, second determination (n2), read-out: Primary assay EC50 Gluc-R (n2)): ≥ 93 nM; EC50 ([4]; cAMP assay, first determination (n1), read-out: Primary assay EC50 GIP-R (n1)): ≥ 93 nM; EC50 ([4]; cAMP assay, second determination (n2), read-out: Primary assay EC50 GIP-R (n2)): ≥ 93 nM
3 | CC[C@H](C)[C@H](NC(=O)[C@](C)(Cc1ccccc1)NC(=O)[C@H](CCC(=O)O)NC(=O)[C@](C)(CCCCN)NC(=O)[C@H](C)NC(=O)[C@H](C)NC(=O)[C@H](CCC(=O)O)NC(=O)CNC(=O)[C@H](CCC(=O)O)NC(=O)[C@H](CC(C)C)NC(=O)[C@](C)(Cc1ccccc1)NC(=O)[C@H](CO)NC(=O)[C@](C)(CO)NC(=O)[C@@H](NC(=O)[C@H](CC(=O)O)NC(=O)[C@H](CO)NC(=O)[C@@H](NC(=O)[C@](C)(Cc1ccccc1)NC(=O)[C@H](CO)NC(=O)CNC(=O)[C@H](CCC(=O)O)NC(=O)C(C)(C)NC(=O)[C@@H](N)Cc1c[nH]cn1)[C@@H](C)O)C(C)C)C(=O)N[C@@H](C)C(=O)N[C@@](C)(Cc1ccccc1)C(=O)N[C@H](C(=O)N[C@H](C(=O)N[C@@H](CCCCNC(=O)CC[C@H](NC(=O)CC[C@H](NC(=O)CC[C@H](NC(=O)CCCCCCCCCCCCCCCCC(=O)O)C(=O)O)C(=O)O)C(=O)O)C(=O)NCC(=O)NCC(N)=O)C(C)C)C(C)C [compound 193] |  |  |  | 330 | 213 | 95 | ≥ 26 | ≥ 26 | ≥ 26 | ≥ 26 | 

The next lines start with results.

Row | EC50 [2, 5] [pM] | EC50 [2, 6] [pM] | EC50 [2, 7] [pM] | EC50 [1, 8] [pM] | EC50 [1, 9] [pM] | EC50 [1, 10] [pM] | EC50 [3, 11] [nM] | EC50 [3, 12] [nM] | EC50 [4, 13] [nM] | EC50 [4, 14] [nM] | SMILES | also measured
4 | 552 | 700 | 403 |  |  |  |  |  |  |  | CCCCCCCCCCCC(=O)N[C@@H](CCC(=O)NCCOCCOCC(=O)NCCOCCOCC(=O)NCCCC[C@H](NC(=O)[C@H](CO)NC(=O)[C@](C)(CO)NC(=O)[C@@H](NC(=O)[C@H](CC(=O)O)NC(=O)[C@H](CO)NC(=O)[C@@H](NC(=O)[C@](C)(Cc1ccccc1)NC(=O)[C@H](CO)NC(=O)CNC(=O)[C@H](CCC(=O)O)NC(=O)C(C)(C)NC(=O)[C@@H](N)Cc1c[nH]cn1)[C@@H](C)O)C(C)C)C(=O)N[C@@H](CC(C)C)C(=O)N[C@@H](CCC(=O)O)C(=O)NCC(=O)N[C@@H](CCC(=O)O)C(=O)N[C@@H](C)C(=O)N[C@@H](C)C(=O)N[C@@](C)(CCCCN)C(=O)N[C@@H](CCC(=O)O)C(=O)N[C@@H](Cc1ccccc1)C(=O)N[C@H](C(=O)N[C@@H](CCCCNC(=O)COCCOCCNC(=O)COCCOCCNC(=O)CC[C@H](NC(=O)CCCCCCCCCCC)C(=O)O)C(=O)N[C@@H](Cc1c[nH]c2ccccc12)C(=O)N[C@H](C(=O)N[C@H](C(=O)N[C@@H](CCC(=O)O)C(=O)NCC(=O)NCC(N)=O)C(C)C)C(C)C)[C@@H](C)CC)C(=O)O [compound 262] (H-H[Aib]EGS[αMeF]TSDV[αMeS]SK([AEEA-AEEA-γGlu-Lauroyl])LEGEAA[αMeK]EFIK([AEEA-AEEA-γGlu-Lauroyl])WVVEGG-NH2; N-terminus assumed) | EC50 ([1]; bis-lipidated peptides, mean of n1 and n2, read-out: Primary assay EC50 Mean pM GLP-1R): 5.4 pM; EC50 ([1]; bis-lipidated peptides, replicate n1, read-out: Primary assay EC50 GLP-1R n1): 6.73 pM; EC50 ([1]; bis-lipidated peptides, replicate n2, read-out: Primary assay EC50 GLP-1R n2): 4.14 pM
5 | 104 | 113 | 95.2 |  |  |  |  |  |  |  | CCCCCCCCCCCC(=O)N[C@@H](CCC(=O)NCCOCCOCC(=O)NCCOCCOCC(=O)NCCCC[C@H](NC(=O)[C@H](C)NC(=O)[C@@H](NC(=O)[C@H](CCCC)NC(=O)[C@H](CCC(=O)O)NC(=O)[C@](C)(CCCCN)NC(=O)[C@H](C)NC(=O)[C@H](C)NC(=O)[C@H](CCC(=O)O)NC(=O)CNC(=O)[C@H](CCC(=O)O)NC(=O)[C@H](CC(C)C)NC(=O)[C@H](CCCCNC(=O)COCCOCCNC(=O)COCCOCCNC(=O)CC[C@H](NC(=O)CCCCCCCCCCC)C(=O)O)NC(=O)[C@H](CO)NC(=O)[C@](C)(CO)NC(=O)[C@@H](NC(=O)[C@H](CC(=O)O)NC(=O)[C@H](CO)NC(=O)[C@@H](NC(=O)[C@](C)(Cc1ccccc1)NC(=O)[C@H](CO)NC(=O)CNC(=O)[C@H](CCC(=O)O)NC(=O)C(C)(C)NC(=O)[C@@H](N)Cc1c[nH]cn1)[C@@H](C)O)C(C)C)[C@@H](C)CC)C(=O)N[C@H](C(=O)N[C@H](C(=O)N[C@@H](CCC(=O)O)C(=O)NCC(=O)NCC(N)=O)C(C)C)C(C)C)C(=O)O [compound 407] (H-H[Aib]EGS[αMeF]TSDV[αMeS]SK([AEEA-AEEA-γGlu-Lauroyl])LEGEAA[αMeK]E[Nle]IAK([AEEA-AEEA-γGlu-Lauroyl])VVEGG-NH2) | 
